Assay results taken from patent US9371336B2, “Compounds for treating spinal muscular atrophy” (PTC Therapeutics Inc., priority 2012, dated 2016).

Experiments:
[1] = tested on: SMN2 minigene mRNA (SMN2-A minigene construct); test: SMN2 minigene mRNA splicing RT-qPCR assay in cultured cells; type: cell-based, human; conditions: Homo sapiens, HEK293-H; HEK293H cells stably transfected with SMN2-A minigene, 24 hours, 7-point concentration data; concentration giving 1.5-fold SMN2 full length mRNA relative to vehicle-treated cells; read-out: EC1.5x for production of full length SMN2 mRNA
How it was run: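 Full-length SMN2 minigene mRNA, measured by exon 7/luciferase-specific RT-qPCR that excludes endogenous SMN1/SMN2, was normalized to GAPDH and expressed relative to vehicle-treated cells via modified ΔΔCt. Stably transfected HEK293H cells received compound (7-point, 3.16-fold series, duplicates) for 24 h at 37 °C.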

[2] = tested on: Smn protein; test: Smn protein assay (HTRF) in cultured cells (SMA patient fibroblasts GM03813); type: cell-based, human; conditions: 48 hours; for maximum fold (Fold) increase of Smn protein: SMA patient fibroblast cells, 7-point concentration curve, relative to vehicle control; for EC1.5x for Smn protein expression: SMA patient fibroblast cells (GM03813), HTRF, 7-point concentration data, concentration producing 1.5 times Smn protein vs DMSO vehicle control
How it was run: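 Smn level is expressed as fold over vehicle, from blank-corrected ΔF of the 665/620 nm HTRF ratio. Readout used anti-SMN d2 and kryptate antibodies on RIPA lysates. GM03813 SMA fibroblasts had 48 h exposure at 37° C to seven 3.16-fold compound dilutions, run in triplicate.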

Row | Structure (SMILES) | melting point | EC (1.5-fold) [1] | maximum fold (Fold) increase of Smn protein [2] | EC1.5x for Smn protein expression [2]
1 | CCCN1CCN(c2ccc3cc(-c4nc5c(Cl)cccc5s4)c(=O)oc3n2)CC1 [Cpd 13, 3-(4-chloro-1,3-benzothiazol-2-yl)-7-(4-propylpiperazin-1-yl)-2H-pyrano[2,3-b]pyridin-2-one] | 251 to 254 °C | 1 to 3 µM | *** (a fold increase between >1.35 and ≦1.5 is indicated by three stars (***)) | –
2 | Cc1csc(-c2cc3ccc(N4CCNCC4)nc3oc2=O)n1.Cl [Cpd 15, 3-(4-methyl-1,3-thiazol-2-yl)-7-(piperazin-1-yl)-2H-pyrano[2,3-b]pyridin-2-one hydrochloride] | 238 to 242 °C | 3 to 30 µM | ** (a fold increase between >1.2 and ≦1.35 is indicated by two stars (**)) | –
3 | CCN1CCN(c2ccc3cc(-c4nc5ccccc5s4)c(=O)oc3n2)CC1 [Cpd 17, 3-(1,3-benzothiazol-2-yl)-7-(4-ethylpiperazin-1-yl)-2H-pyrano[2,3-b]pyridin-2-one] | 254 to 257 °C | 0.3 to 1 µM | *** (a fold increase between >1.35 and ≦1.5 is indicated by three stars (***)) | –
4 | CCCN1CCN(c2ccc3cc(-c4nc(C)cs4)c(=O)oc3n2)CC1 [Cpd 21, 3-(4-methyl-1,3-thiazol-2-yl)-7-(4-propylpiperazin-1-yl)-2H-pyrano[2,3-b]pyridin-2-one] | 210 to 214 °C | 3 to 30 µM | * (A maximum fold increase ≦1.2 is indicated by one star (*)) | –
5 | CC(C)N1CCN(c2ccc3cc(-c4nc5c(Cl)cccc5s4)c(=O)oc3n2)CC1 [Cpd 23, 3-(4-chloro-1,3-benzothiazol-2-yl)-7-[4-(propan-2-yl)piperazin-1-yl]-2H-pyrano[2,3-b]pyridin-2-one] | 230 to 234 °C | 0.3 to 1 µM | ** (a fold increase between >1.2 and ≦1.35 is indicated by two stars (**)) | –
6 | O=c1oc2nc(N3CCN(CC(O)CO)CC3)ccc2cc1-c1nc2ccccc2s1 (stereo not drawn) [Cpd 26, 3-(1,3-benzothiazol-2-yl)-7-[4-(2,3-dihydroxypropyl)piperazin-1-yl]-2H-pyran [2,3-b]pyridin-2-one] | 236 to 239 °C | 1 to 3 µM | ** (a fold increase between >1.2 and ≦1.35 is indicated by two stars (**)) | –
7 | Cc1ccn2cc(-c3cc4ccc(N5CCNCC5)nc4oc3=O)nc2c1.Cl [Cpd 29, 3-(7-methylimidazo[1,2-a]pyridin-2-yl)-7-(piperazin-1-yl)-2H-pyrano[2,3-b]pyridin-2-one hydrochloride] | 240 to 244 °C | ≤ 0.1 µM | *** (a fold increase between >1.35 and ≦1.5 is indicated by three stars (***)) | –
8 | Cl.O=c1oc2nc(N3CCCNCC3)ccc2cc1-c1nc2c(Cl)cccc2s1 [Cpd 31, 3-(4-chloro-1,3-benzothiazol-2-yl)-7-(1,4-diazepan-1-yl)-2H-pyrano[2,3-b]pyridin-2-one hydrochloride] | 271 to 273 °C | 0.1 to 0.3 µM | ** (a fold increase between >1.2 and ≦1.35 is indicated by two stars (**)) | –
9 | Cc1ccc2nc(-c3cc4cnc(N5CCN(C)CC5)cc4oc3=O)cn2c1 [Cpd 34, 3-(6-methylimidazo[1,2-a]pyridin-2-yl)-7-(4-methylpiperazin-1-yl)-2H-pyrano[3,2-c]pyridin-2-one] | 264 to 268 °C | 1 to 3 µM | *** (a fold increase between >1.35 and ≦1.5 is indicated by three stars (***)) | –
10 | CN1CCCN(c2ccc3cc(-c4cn5cccnc5n4)c(=O)oc3n2)CC1 [Cpd 36, 3-(imidazo[1,2-a]pyrimidin-2-yl)-7-(4-methyl-1,4-diazepan-1-yl)-2H-pyrano[2,3-b]pyridin-2-one] | 232 to 234 °C | 0.3 to 1 µM | **** (a fold increase between >1.5 and ≦1.65 is indicated by four stars (****)) | ** (an EC1.5× between >1 and ≦3 μM is indicated by two stars (**))
11 | CN1CCCN(c2ccc3cc(-c4nc5c(Cl)cccc5s4)c(=O)oc3n2)CC1 [Cpd 37, 3-(4-chloro-1,3-benzothiazol-2-yl)-7-(4-methyl-1,4-diazepan-1-yl)-2H-pyrano[2,3-b]pyridin-2-one] | 263 to 265 °C | ≤ 0.1 µM | *** (a fold increase between >1.35 and ≦1.5 is indicated by three stars (***)) | ** (an EC1.5× between >1 and ≦3 μM is indicated by two stars (**))

The next lines start with results.

Row | melting point | Structure (SMILES) | EC (1.5-fold) [1] | maximum fold (Fold) increase of Smn protein [2] | EC1.5x for Smn protein expression [2]
12 | 274 to 280 °C | Cl.O=c1oc2nc(N3CCNCC3)ccc2cc1-c1nc(C(F)(F)F)cs1 [Cpd 16, 7-(piperazin-1-yl)-3-[4-(trifluoromethyl)-1,3-thiazol-2-yl]-2H-pyrano[2,3-b]pyridin-2-one hydrochloride] | 1 to 3 µM | * (A maximum fold increase ≦1.2 is indicated by one star (*)) | –
13 | 247 to 250 °C | CCCN1CCN(c2ccc3cc(-c4nc5ccccc5s4)c(=O)oc3n2)CC1 [Cpd 18, 3-(1,3-benzothiazol-2-yl)-7-(4-propylpiperazin-1-yl)-2H-pyrano[2,3-b]pyridin-2-one] | 1 to 3 µM | * (A maximum fold increase ≦1.2 is indicated by one star (*)) | –
14 | 241 to 245 °C | CC(C)N1CCN(c2ccc3cc(-c4nc5ccccc5s4)c(=O)oc3n2)CC1 [Cpd 19, 3-(1,3-benzothiazol-2-yl)-7-[4-(propan-2-yl)piperazin-1-yl]-2H-pyrano[2,3-b]pyridin-2-one] | 0.3 to 1 µM | ** (a fold increase between >1.2 and ≦1.35 is indicated by two stars (**)) | –
15 | 228 to 232 °C | CCN1CCN(c2ccc3cc(-c4nc(C)cs4)c(=O)oc3n2)CC1 [Cpd 20, 7-(4-ethylpiperazin-1-yl)-3-(4-methyl-1,3-thiazol-2-yl)-2H-pyrano[2,3-b]pyridin-2-one] | 3 to 30 µM | * (A maximum fold increase ≦1.2 is indicated by one star (*)) | –
16 | 216 to 220 °C | O=c1oc2nc(N3CCN(CC(O)CO)CC3)ccc2cc1-c1nc2c(Cl)cccc2s1 (stereo not drawn) [Cpd 22, 3-(4-chloro-1,3-benzothiazol-2-yl)-7-[4-(2,3-dihydroxypropyl)piperazin-1-yl]-2H-pyrano[2,3-b]pyridin-2-one] | 0.3 to 1 µM | **** (a fold increase between >1.5 and ≦1.65 is indicated by four stars (****)) | *** (an EC1.5× between >0.3 μM and ≦1 μM is indicated by three stars (***))
17 | 218 to 222 °C | Cc1ccc2nc(-c3cc4ccc(N5CCNCC5)nc4oc3=O)cn2c1.Cl [Cpd 24, 3-(6-methylimidazo[1,2-a]pyridin-2-yl)-7-(piperazin-1-yl)-2H-pyrano[2,3-b]pyridin-2-one hydrochloride] | 0.3 to 1 µM | ** (a fold increase between >1.2 and ≦1.35 is indicated by two stars (**)) | –
18 | 220 to 224 °C | O=c1oc2nc(N3CCN(CCO)CC3)ccc2cc1-c1nc2ccccc2s1 [Cpd 25, 3-(1,3-benzothiazol-2-yl)-7-[4-(2-hydroxyethyl)piperazin-1-yl]-2H-pyrano[2,3-b]pyridin-2-one] | 0.3 to 1 µM | *** (a fold increase between >1.35 and ≦1.5 is indicated by three stars (***)) | –
19 | 250 to 252 °C | Cl.O=c1oc2nc(N3CCCNCC3)ccc2cc1-c1cn2cccnc2n1 [Cpd 30, 7-(1,4-diazepan-1-yl)-3-(imidazo[1,2-a]pyrimidin-2-yl)-2H-pyrano[2,3-b]pyridin-2-one hydrochloride] | 0.1 to 0.3 µM | *** (a fold increase between >1.35 and ≦1.5 is indicated by three stars (***)) | ** (an EC1.5× between >1 and ≦3 μM is indicated by two stars (**))
20 | 267 to 269 °C | Cl.O=c1oc2nc(N3CCCNCC3)ccc2cc1-c1cn2ccsc2n1 [Cpd 32, 7-(1,4-diazepan-1-yl)-3-(imidazo[2,1-b][1,3]thiazol-6-yl)-2H-pyrano[2,3-b]pyridin-2-one hydrochloride] | ≤ 0.1 µM | *** (a fold increase between >1.35 and ≦1.5 is indicated by three stars (***)) | –
21 | 243 to 246 °C | CN1CCN(c2ccc3cc(-c4cn5ccccc5n4)c(=O)oc3n2)CC1 [Cpd 38, 3-(imidazo[1,2-a]pyridin-2-yl)-7-(4-methylpiperazin-1-yl)-2H-pyrano[2,3-b]pyridin-2-one] | 0.1 to 0.3 µM | ***** (a fold increase >1.65 is indicated by five stars (*****)) | *** (an EC1.5× between >0.3 μM and ≦1 μM is indicated by three stars (***))
22 | 264 to 268 °C | Cc1ccn2cc(-c3cc4ccc(N5CCN(C)CC5)nc4oc3=O)nc2c1 [Cpd 39, 3-(7-methylimidazo[1,2-a]pyridin-2-yl)-7-(4-methylpiperazin-1-yl)-2H-pyrano[2,3-b]pyridin-2-one] | ≤ 0.1 µM | **** (a fold increase between >1.5 and ≦1.65 is indicated by four stars (****)) | **** (an EC1.5×≦0.3 μM is indicated by four stars (****))
